According to the CheMixHub ionic liquid set:

Assay: xn = mol fraction of the nth substance listed

O=[N+]([O-])[O-].O=[N+]([O-])[O-].[Mg+2] + O + CC[NH3+].O=[N+]([O-])[O-]
100 kPa
Conditions	electrical conductivity [S/m]	viscosity [mPa·s]
223 K, x1 = 0.2128, x2 = 0.6185	0.001	–
233 K, x1 = 0.2128, x2 = 0.6185	0.006	–
243 K, x1 = 0.1395, x2 = 0.4931	0.002	–
243 K, x1 = 0.2128, x2 = 0.6185	0.02	–
253 K, x1 = 0.1395, x2 = 0.4931	0.019	–
253 K, x1 = 0.2128, x2 = 0.6185	0.052	–
263 K, x1 = 0.1395, x2 = 0.4931	0.077	–
263 K, x1 = 0.2128, x2 = 0.6185	0.113	–
273 K, x1 = 0.1395, x2 = 0.4931	0.206	–
273 K, x1 = 0.2128, x2 = 0.6185	0.216	–
283 K, x1 = 0.1395, x2 = 0.4931	0.429	–
283 K, x1 = 0.2128, x2 = 0.6185	0.375	–
288.15 K, x1 = 0.1395, x2 = 0.4931	–	172
288.15 K, x1 = 0.2128, x2 = 0.6185	–	334
293 K, x1 = 0.1395, x2 = 0.4931	0.76	–
293 K, x1 = 0.2128, x2 = 0.6185	0.602	–
293.15 K, x1 = 0.1395, x2 = 0.4931	–	138.7
293.15 K, x1 = 0.2128, x2 = 0.6185	–	253
298.15 K, x1 = 0.1395, x2 = 0.4931	–	112.6
298.15 K, x1 = 0.2128, x2 = 0.6185	–	193
303 K, x1 = 0.1395, x2 = 0.4931	1.2	–
303 K, x1 = 0.2128, x2 = 0.6185	0.91	–
303.15 K, x1 = 0.1395, x2 = 0.4931	–	92
303.15 K, x1 = 0.2128, x2 = 0.6185	–	148.9
308.15 K, x1 = 0.1395, x2 = 0.4931	–	75.7
308.15 K, x1 = 0.2128, x2 = 0.6185	–	115.8
313 K, x1 = 0.1395, x2 = 0.4931	1.74	–
313 K, x1 = 0.2128, x2 = 0.6185	1.31	–
313.15 K, x1 = 0.1395, x2 = 0.4931	–	62.7
313.15 K, x1 = 0.2128, x2 = 0.6185	–	90.7
323 K, x1 = 0.1395, x2 = 0.4931	2.37	–
323 K, x1 = 0.2128, x2 = 0.6185	1.8	–
333 K, x1 = 0.1395, x2 = 0.4931	3.08	–
333 K, x1 = 0.2128, x2 = 0.6185	2.39	–
343 K, x1 = 0.1395, x2 = 0.4931	3.86	–
343 K, x1 = 0.2128, x2 = 0.6185	3.08	–
353 K, x1 = 0.1395, x2 = 0.4931	4.69	–
353 K, x1 = 0.2128, x2 = 0.6185	3.88	–
363 K, x1 = 0.1395, x2 = 0.4931	5.56	–
363 K, x1 = 0.2128, x2 = 0.6185	4.78	–
373 K, x1 = 0.1395, x2 = 0.4931	6.46	–
373 K, x1 = 0.2128, x2 = 0.6185	5.78	–

CCCn1cc[n+](CCC)c1.O=S(=O)([N-]S(=O)(=O)C(F)(F)F)C(F)(F)F + O
100 kPa, x2 = 0.2232
Conditions	viscosity [mPa·s]
303.15 K	29.21
313.15 K	20.49
333.15 K	11.48
348.15 K	8.09
363.15 K	6

O=C(O)CCl + CCC[N+](CCC)(CCC)CCC.[Br-]
100 kPa, x2 = 0.333
Conditions	electrical conductivity [S/m]	viscosity [mPa·s]
308.15 K	0.136	61.13
328.15 K	0.345	21.57

CC[n+]1ccn(CCOC)c1.N#C[S-] + CCCCO
viscosity [mPa·s], 100 kPa
Conditions	x1 = 0.1	x1 = 0.1999	x1 = 0.2996	x1 = 0.4001	x1 = 0.4996	x1 = 0.5995	x1 = 0.6979	x1 = 0.7993	x1 = 0.9	x1 = 1
288.15 K	4.85	6.76	9.62	13.89	20	27.4	40.1	53	72	93.1
293.15 K	4.22	5.84	8.21	11.73	16.88	22.5	32.3	42.1	56.5	70.8
298.15 K	3.73	5.1	7.11	10.04	14.26	19	26.4	34.1	44.9	55.8
303.15 K	3.3	4.49	6.22	8.68	12.18	16.18	22	28	36.4	44.3
308.15 K	2.93	4.01	5.48	7.57	10.46	13.82	18.7	23.4	30	36
313.15 K	2.62	3.57	4.86	6.66	9.07	11.91	16.06	19.9	25.1	29.7
318.15 K	2.35	3.21	4.34	5.9	7.94	10.35	13.87	17.27	21.3	24.9

C[NH+](C)C.O=S(=O)([N-]S(=O)(=O)C(F)(F)F)C(F)(F)F + CC1COC(=O)O1
298.15 K, 101 kPa
Conditions	electrical conductivity [S/m]
x1 = 0.0001	0.003
x1 = 0.0137	0.352
x2 = 0.6243	1.61
x2 = 0.7417	1.64
x2 = 0.8037	1.53
x2 = 0.979	0.476

CCCC[n+]1ccn(C)c1C.F[B-](F)(F)F + CCCCn1cc[n+](C)c1C.O=S(=O)([N-]S(=O)(=O)C(F)(F)F)C(F)(F)F
100 kPa
Conditions	electrical conductivity [S/m]
313.15 K, x2 = 0.5	0.313
318.15 K, x2 = 0.3	0.332
318.15 K, x2 = 0.5	0.388
318.15 K, x2 = 0.8	0.493
323.15 K, x2 = 0	0.202
323.15 K, x2 = 0.2	0.398
323.15 K, x2 = 0.3	0.415
323.15 K, x2 = 0.4	0.445
328.15 K, x2 = 0	0.26
333.15 K, x2 = 0.6	0.687
338.15 K, x2 = 0	0.447
338.15 K, x2 = 0.3	0.734
338.15 K, x2 = 0.4	0.774
338.15 K, x2 = 0.6	0.806
348.15 K, x2 = 0.4	1.04
348.15 K, x2 = 0.8	1.23
348.15 K, x2 = 0.9	1.4
353.15 K, x2 = 0.8	1.32
358.15 K, x2 = 0.1	1.33
358.15 K, x2 = 0.5	1.39
358.15 K, x2 = 0.7	1.42
358.15 K, x2 = 0.8	1.49
363.15 K, x2 = 0.5	1.56

CCCC[n+]1ccn(C)c1.O=[N+]([O-])[O-] + CCCCO
101 kPa
Conditions	viscosity [mPa·s]
283.15 K, x2 = 0.456	47.92
288.15 K, x2 = 0.26	94.8
288.15 K, x2 = 0.565	23.86
293.15 K, x2 = 0.565	19.88
293.15 K, x2 = 0.848	5.88
298.15 K, x2 = 0.129	97
298.15 K, x2 = 0.456	25.72
298.15 K, x2 = 0.565	16.79
303.15 K, x2 = 0.26	43.31
303.15 K, x2 = 0.565	14.34
308.15 K, x2 = 0.129	56.32
308.15 K, x2 = 0.26	35.31
308.15 K, x2 = 0.65	8.91
308.15 K, x2 = 0.753	5.59
313.15 K, x2 = 0.361	21.55
313.15 K, x2 = 0.565	10.76
313.15 K, x2 = 0.65	7.8
313.15 K, x2 = 0.753	4.91
318.15 K, x2 = 0.26	24.53
318.15 K, x2 = 0.565	9.44
323.15 K, x2 = 0.361	15.85
323.15 K, x2 = 0.753	3.92
333.15 K, x2 = 0.361	12.03
333.15 K, x2 = 0.565	6.56

CCOS(=O)(=O)[O-].CC[n+]1ccn(C)c1 + CCO + CCOC(C)(C)C
298.15 K, 101 kPa
Conditions	viscosity [mPa·s]
x2 = 0, x3 = 0	100.4
x2 = 0.1271, x3 = 0	65.5
x2 = 0.1281, x3 = 0	66.1
x2 = 0.2039, x3 = 0	49.8
x2 = 0.2187, x3 = 0	47.7
x2 = 0.3088, x3 = 0	34.69
x2 = 0.3256, x3 = 0	32.21
x2 = 0.3598, x3 = 0	28.75
x2 = 0.4147, x3 = 0	22.88
x2 = 0.4336, x3 = 0	21.39
x2 = 0.4604, x3 = 0	18.98
x2 = 0.5103, x3 = 0	15.4
x2 = 0.5223, x3 = 0	14.78
x2 = 0.5724, x3 = 0	11.74
x2 = 0.5926, x3 = 0	10.83
x2 = 0.5951, x3 = 0	10.65
x2 = 0.712, x3 = 0	6.13
x2 = 0.7174, x3 = 0	5.98
x2 = 0.7508, x3 = 0	5.08
x2 = 0.7676, x3 = 0	4.68
x2 = 0.7866, x3 = 0	4.31
x2 = 0.806, x3 = 0	3.86
x2 = 0.8666, x3 = 0	2.709
x2 = 0.9026, x3 = 0	2.189
x2 = 0.9062, x3 = 0	2.138
x2 = 0.9504, x3 = 0	1.628
x2 = 0.9522, x3 = 0	1.589
